Patent US20050004163A1, “3-(diarylmethylene)-8-azabicyclo[3.2.1]octane derivatives” (priority 2000, published 2005)

Experiments:
μ-opioid receptor = target: T1, μ-opioid receptor (Rattus norvegicus, UniProt P33535); experiment: Rat brain μ-opioid receptor binding assay ([3H]DAMGO); details: MOR binding Ki
T1 construct: the forebrains are homogenized in Tris buffer in a Teflon®-glass homogenizer; from tissue; host or cells: forebrain of male Wistar rats (particulate membrane preparation)
Summary of the method: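 Rat forebrain membranes from male Wistar rats, prepared in 50 mM Tris HCl pH 7.4, used for [3H]DAMGO binding. Filter-bound radioactivity measured by scintillation counting.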

[1] = tested on: acetylcholine bromide-induced abdominal constriction response; experiment: Mouse acetylcholine bromide-induced abdominal constriction assay; assay type: in vivo; details: dose of 150 μmole/Kg p.o., 5.5 mg/kg acetylcholine bromide i.p. 30 min later, ten min observation
Experimental: Mouse Acetylcholine Bromide-Induced Abdominal Constriction Assay
The mouse acetylcholine-induced abdominal constriction assay (as described by Collier et al. in Brit. J. Pharmacol. Chem. Ther., 1968, 32:295-310 with minor modifications) was used to assess analgesic potency of the compounds of formula (I). The test drugs or appropriate vehicles were administered orally (p.o.) and 30 min later the animal received an intraperitoneal (i.p.) injection of 5.5 mg/kg acetylcholine bromide (Matheson, Coleman and Bell, East Rutherford, N.J.). The mice were then placed in groups of three into glass bell jars and observed for a ten min observation period for the occurrence of an abdominal constriction response (defined as a wave of constriction and elongation passing caudally along the abdominal wall, accompanied by a twisting of the trunk and followed by extension of the hind limbs). For compounds of the present invention, the percent inhibition of this response to a nociceptive stimulus (equated to % analgesia) was calculated as follows: [formula]

T1 sequence (P33535 whole entry): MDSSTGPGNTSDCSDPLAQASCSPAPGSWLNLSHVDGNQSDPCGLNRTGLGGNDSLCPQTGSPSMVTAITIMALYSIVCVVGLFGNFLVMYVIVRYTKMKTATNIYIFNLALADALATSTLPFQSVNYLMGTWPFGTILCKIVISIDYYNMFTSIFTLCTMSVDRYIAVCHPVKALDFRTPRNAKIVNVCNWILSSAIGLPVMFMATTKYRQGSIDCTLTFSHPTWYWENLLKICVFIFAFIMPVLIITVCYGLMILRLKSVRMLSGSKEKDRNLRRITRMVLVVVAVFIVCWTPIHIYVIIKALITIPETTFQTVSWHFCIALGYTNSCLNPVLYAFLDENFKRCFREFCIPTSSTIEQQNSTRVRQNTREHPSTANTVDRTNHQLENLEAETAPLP

SMILES	melting point [°C]	Ki (μ-opioid receptor) [nM]	inhibition response (percent inhibition of abdominal constriction response, equated to % analgesia) [1] [%]
CCNC(=O)c1ccc(C=C2CC3CCC(C2)N3CCC(C(=O)N(C)C)(c2ccccc2)c2ccccc2)cc1 [Cpd 107, 4-[8-(3-Dimethylcarbamoyl-3,3-diphenyl-propyl)-8-aza-bicyclo[3.2.1]oct-3-ylidenemethyl]-N-ethyl-benzamide]	137 to 139	22.8	–
CNC(=O)c1ccc(C=C2CC3CCC(C2)N3)cc1 [Cpd 103, 4-(8-Aza-bicyclo[3.2.1]oct-3-ylidenemethyl)-N-methyl-benzamide]	164 to 166	10600	–
CCN(CC)C(=O)c1ccc(C(=C2CC3CCC(C2)N3C)c2ccccc2)cc1.Cl [Example 1, N,N-Diethyl-4-[(8-methyl-8-azabicyclo[3.2.1]oct-3-ylidene)phenylmethyl]benzamide Hydrochloride [1:1]]	–	–	87
CCNC(=O)c1ccc(C(=C2CC3CCC(C2)N3CC(=O)c2cc(C(=O)c3ccc(Cl)cc3)cn2C)c2ccccc2)cc1 [Cpd 88, 4-[(8{2-[4-(4-Chloro-benzoyl)-1-methyl-1H-pyrrol-2-yl]-2-oxo-ethyl}-8-azabicyclo[3.2.1]oct-3-ylidene)-phenyl-methyl]-N-ethyl-benzamide]	195 to 196	551	–
CCNC(=O)c1ccc(C(C#N)=C2CC3CCC(C2)N3Cc2ccoc2)cc1 (single isomer, unassigned) [Cpd 209]	–	2.59	–
CCNC(=O)c1ccc(C=C2CC3CCC(C2)N3Cc2ccc(NC(C)=O)cc2)cc1 [Cpd 31]	–	25.6	–
CCNC(=O)c1ccc(C(=C2CC3CCC(C2)N3Cc2nccs2)c2ccc(CC(N)C(=O)O)cc2)cc1 (stereo not shown) [Cpd 131]	–	152	–
